In one experiment the test system is Pseudomonas aeruginosa. The experiment in a line: Antimicrobial activity against Pseudomonas aeruginosa ATCC 10145 assessed as growth inhibition after 24 hr by broth microdilution method. It counts as functional. The conditions noted are these: ATCC 10145, 24 h.
In another experiment the test system is Klebsiella pneumoniae. The experiment in a line: Antimicrobial activity against Klebsiella pneumoniae ATCC 10031 assessed as growth inhibition after 24 hr by broth microdilution method. It counts as functional. The conditions noted are these: ATCC 10031, 24 h. (Dilution methods test growth across graded concentrations, often in twofold steps.)
The next experiment deals with A549. Put plainly: Anticancer activity against Homo sapiens (human) A549 cells assessed as inhibition of cell viability after 96 hr by MTT assay. In kind it is functional, cell-based. The conditions noted are these: A549, 96 h.
For a further experiment, the system named is Enterococcus faecalis. The experiment in a line: Antimicrobial activity against Enterococcus faecalis ATCC 14506 assessed as growth inhibition after 24 hr by broth microdilution method. It counts as functional. The conditions noted are these: ATCC 14506, 24 h.
A further experiment deals with Candida tropicalis. Put plainly: Antimicrobial activity against Candida tropicalis ATCC 1369 assessed as growth inhibition after 24 hr by broth microdilution method. In kind it is functional. The conditions noted are these: ATCC 1369, 24 h.
The next experiment has as its system Aspergillus niger. Put plainly: Antimicrobial activity against Aspergillus niger ATCC 6275 assessed as growth inhibition after 24 hr by broth microdilution method. The conditions noted are these: ATCC 6275, 24 h. In kind it is functional.
The subject of another experiment is HeLa. Put plainly: Anticancer activity against Homo sapiens (human) HeLa cells assessed as inhibition of cell viability after 96 hr by MTT assay. In kind it is functional, cell-based. On the technique in general: Tetrazolium dyes change colour on reduction, which living cells bring about.
A further experiment relates to A2780. The experiment in a line: Anticancer activity against Homo sapiens (human) A2780 cells assessed as inhibition of cell viability after 96 hr by MTT assay. It counts as functional, cell-based. The conditions noted are these: A2780, 96 h.
For another experiment, the system named is Bacillus subtilis. The experiment in a line: Antimicrobial activity against Bacillus subtilis ATCC 60511 assessed as growth inhibition after 24 hr by broth microdilution method. It counts as functional. The conditions noted are these: ATCC 60511, 24 h.
A further experiment relates to Escherichia coli. Put plainly: Antimicrobial activity against Escherichia coli ATCC 10536 assessed as growth inhibition after 24 hr by broth microdilution method. In kind it is functional. The conditions noted are these: ATCC 10536, 24 h.
The next experiment deals with Saccharomyces cerevisiae. The experiment in a line: Antimicrobial activity against Saccharomyces cerevisiae ATCC 9763 assessed as growth inhibition after 24 hr by broth microdilution method. It counts as functional. The conditions noted are these: ATCC 9763, 24 h.
In another experiment the test system is Staphylococcus aureus. Put plainly: Antimicrobial activity against Staphylococcus aureus ATCC 11632 assessed as growth inhibition after 24 hr by broth microdilution method. The conditions noted are these: ATCC 11632, 24 h. It counts as functional.
For a further experiment, the system named is MCF7. Put plainly: Anticancer activity against Homo sapiens (human) MCF7 cells assessed as inhibition of cell viability after 96 hr by MTT assay. The conditions noted are these: MCF7, 96 h. In kind it is functional, cell-based.
The subject of another experiment is BGC-823. Put plainly: Anticancer activity against Homo sapiens (human) BGC823 cells assessed as inhibition of cell viability after 96 hr by MTT assay. It counts as functional, cell-based. The conditions noted are these: BGC-823, 96 h.

As usually defined, the MIC is the lowest concentration found to suppress growth. As a reminder, the IC50 is the concentration that gives 50% inhibition.

≈ marks a conversion by molar mass, not a printed value.

In the case of `Fc1cccc(F)c1C1CC(c2ccccc2)=NN1C1=NC(c2ccc(Cl)cc2)S1` (stereo not drawn), the MIC was found to be 62.5 µg/mL (≈ 142 µM) with Pseudomonas aeruginosa; 16 µg/mL (≈ 36.4 µM) with Klebsiella pneumoniae; 125 µg/mL (≈ 284 µM) with Enterococcus faecalis; 8 µg/mL (≈ 18.2 µM) in the experiment on Candida tropicalis; 8 µg/mL (≈ 18.2 µM) with Aspergillus niger; 31.2 µg/mL (≈ 71 µM) in the experiment on Bacillus subtilis. Further, the MIC came out at 8 µg/mL (≈ 18.2 µM) in the experiment on Escherichia coli, 4 µg/mL (≈ 9.09 µM) in the experiment with Saccharomyces cerevisiae and 31.2 µg/mL (≈ 71 µM) with Staphylococcus aureus. The IC50 turned out to be 1.56 µM with A549; 4.94 µM in the experiment with HeLa; 2.72 µM with A2780; 1.69 µM in the experiment with MCF7; 1.41 µM in the experiment with BGC-823.

Turning to `Fc1cccc(F)c1C1CC(c2ccccc2)=NN1C1=NC(c2ccc(Cl)cc2Cl)S1` (stereo not drawn), the MIC amounted to 125 µg/mL (≈ 264 µM) in the experiment with Pseudomonas aeruginosa; 31.2 µg/mL (≈ 65.9 µM) in the experiment with Klebsiella pneumoniae; 125 µg/mL (≈ 264 µM) with Enterococcus faecalis; 62.5 µg/mL (≈ 132 µM) with Candida tropicalis; 8 µg/mL (≈ 16.9 µM) in the experiment with Aspergillus niger; 31.2 µg/mL (≈ 65.9 µM) in the experiment with Bacillus subtilis. The MIC in the experiment with Escherichia coli was 16 µg/mL (≈ 33.7 µM); in the experiment with Saccharomyces cerevisiae, 16 µg/mL (≈ 33.7 µM); in the experiment on Staphylococcus aureus, 125 µg/mL (≈ 264 µM). In addition, the 50% inhibitory concentration (IC50) stood at 3.25 µM in the experiment with A549; 6.13 µM with HeLa; 4.51 µM with A2780; 1.89 µM in the experiment on MCF7; 3.31 µM in the experiment with BGC-823.

Regarding `Fc1cccc(F)c1C1CC(c2ccccc2)=NN1c1nc(-c2cccnc2)cs1` (stereo not drawn), the MIC in the experiment with Pseudomonas aeruginosa was determined as 16 µg/mL (≈ 38.2 µM); with Klebsiella pneumoniae, 31.2 µg/mL (≈ 74.7 µM); in the experiment on Enterococcus faecalis it was 31.2 µg/mL (≈ 74.7 µM); in the experiment on Candida tropicalis, 16 µg/mL (≈ 38.2 µM); in the experiment on Aspergillus niger it was 16 µg/mL (≈ 38.2 µM); with Bacillus subtilis, 31.2 µg/mL (≈ 74.7 µM). The MIC in the experiment on Escherichia coli was 16 µg/mL (≈ 38.2 µM); in the experiment on Saccharomyces cerevisiae, 31.2 µg/mL (≈ 74.7 µM); with Staphylococcus aureus, 31.2 µg/mL (≈ 74.7 µM). The IC50 in the experiment with A549 was determined as 1.43 µM; in the experiment on HeLa it was 5.98 µM; in the experiment with A2780, 3.18 µM; in the experiment on MCF7, 2.45 µM; in the experiment with BGC-823, 1.11 µM.

In the case of `Oc1ccc(-c2csc(N3N=C(c4ccccc4)CC3c3c(F)cccc3F)n2)cc1` (stereo not drawn), the MIC was 62.5 µg/mL (≈ 144 µM) with Pseudomonas aeruginosa; 16 µg/mL (≈ 36.9 µM) with Klebsiella pneumoniae; 125 µg/mL (≈ 288 µM) in the experiment with Enterococcus faecalis; 125 µg/mL (≈ 288 µM) in the experiment on Candida tropicalis; 16 µg/mL (≈ 36.9 µM) with Aspergillus niger; 31.2 µg/mL (≈ 72.1 µM) in the experiment with Bacillus subtilis. Besides, the figures for the MIC in the experiment on Escherichia coli, with Saccharomyces cerevisiae and in the experiment on Staphylococcus aureus were 62.5 µg/mL (≈ 144 µM), 31.2 µg/mL (≈ 72.1 µM) and 16 µg/mL (≈ 36.9 µM), respectively. Further, the IC50 with A549 came to 1.57 µM; in the experiment with HeLa it was 7.09 µM; in the experiment on A2780, 2.45 µM; in the experiment on MCF7, 3.04 µM; in the experiment on BGC-823 it was 2.11 µM.

As for `O=C(Cc1csc(N2N=C(c3ccccc3)CC2c2c(F)cccc2F)n1)N/N=C/c1c(F)cccc1F` (stereo not drawn), the MIC stood at 8 µg/mL (≈ 14.9 µM) in the experiment on Pseudomonas aeruginosa; 8 µg/mL (≈ 14.9 µM) in the experiment with Klebsiella pneumoniae; 16 µg/mL (≈ 29.8 µM) with Enterococcus faecalis; 4 µg/mL (≈ 7.44 µM) in the experiment with Candida tropicalis; 16 µg/mL (≈ 29.8 µM) in the experiment on Aspergillus niger; 62.5 µg/mL (≈ 116 µM) in the experiment on Bacillus subtilis. Also, the MIC in the experiment with Escherichia coli worked out at 4 µg/mL (≈ 7.44 µM); with Saccharomyces cerevisiae, 16 µg/mL (≈ 29.8 µM); with Staphylococcus aureus, 16 µg/mL (≈ 29.8 µM). Besides, the IC50 stood at 0.96 µM in the experiment on A549; 4.23 µM with HeLa; 2.54 µM in the experiment with A2780; 1.2 µM in the experiment with MCF7; 1.32 µM with BGC-823.

In the case of `Fc1cccc(F)c1C1CC(c2ccccc2)=NN1c1nc(-c2ccccc2)cs1` (stereo not drawn), the MIC amounted to 62.5 µg/mL (≈ 150 µM) with Pseudomonas aeruginosa; 62.5 µg/mL (≈ 150 µM) in the experiment on Klebsiella pneumoniae; 8 µg/mL (≈ 19.2 µM) with Enterococcus faecalis; 125 µg/mL (≈ 299 µM) with Candida tropicalis; 125 µg/mL (≈ 299 µM) with Aspergillus niger; 8 µg/mL (≈ 19.2 µM) in the experiment on Bacillus subtilis. In addition, the figures for the MIC in the experiment on Escherichia coli, with Saccharomyces cerevisiae and in the experiment with Staphylococcus aureus were 31.2 µg/mL (≈ 74.9 µM), 62.5 µg/mL (≈ 150 µM) and 31.2 µg/mL (≈ 74.9 µM), respectively. Besides, the IC50 in the experiment with A549 came to 3.01 µM; in the experiment on HeLa, 5.91 µM; with A2780, 3.09 µM; in the experiment with MCF7 it was 2.23 µM; in the experiment on BGC-823 it was 2.01 µM.

In the case of `O=[N+]([O-])c1ccc(C2N=C(N3N=C(c4ccccc4)CC3c3c(F)cccc3F)S2)cc1` (stereo not drawn), the MIC worked out at 8 µg/mL (≈ 17.8 µM) in the experiment with Pseudomonas aeruginosa; 31.2 µg/mL (≈ 69.4 µM) with Klebsiella pneumoniae; 16 µg/mL (≈ 35.5 µM) with Enterococcus faecalis; 125 µg/mL (≈ 277 µM) in the experiment with Candida tropicalis; 125 µg/mL (≈ 277 µM) in the experiment with Aspergillus niger; 62.5 µg/mL (≈ 139 µM) in the experiment on Bacillus subtilis. The values for the MIC with Escherichia coli, in the experiment on Saccharomyces cerevisiae and in the experiment on Staphylococcus aureus were 31.2 µg/mL (≈ 69.4 µM), 8 µg/mL (≈ 17.8 µM) and 31.2 µg/mL (≈ 69.4 µM), respectively. Also, the IC50 was determined as 3.26 µM in the experiment on A549; 6.62 µM in the experiment on HeLa; 4.35 µM with A2780; 3.22 µM in the experiment on MCF7; 6.11 µM in the experiment on BGC-823.

For the origin of these results see ChEMBL document CHEMBL3046035, “Synthesis and biological evaluation of novel 4,5-dihydropyrazole derivatives as potent anticancer and antimicrobial agents” (Med Chem Res, 2013).
